Source: BindingDB's records for patent US10913753 (Valo Early Discovery, 2021)

Assays:
[1] = target: T1, Ubiquitin carboxyl-terminal hydrolase 28 (Homo sapiens, UniProt Q96RU2); experiment: Biochemical Assay
T1 sequence (Q96RU2 whole entry): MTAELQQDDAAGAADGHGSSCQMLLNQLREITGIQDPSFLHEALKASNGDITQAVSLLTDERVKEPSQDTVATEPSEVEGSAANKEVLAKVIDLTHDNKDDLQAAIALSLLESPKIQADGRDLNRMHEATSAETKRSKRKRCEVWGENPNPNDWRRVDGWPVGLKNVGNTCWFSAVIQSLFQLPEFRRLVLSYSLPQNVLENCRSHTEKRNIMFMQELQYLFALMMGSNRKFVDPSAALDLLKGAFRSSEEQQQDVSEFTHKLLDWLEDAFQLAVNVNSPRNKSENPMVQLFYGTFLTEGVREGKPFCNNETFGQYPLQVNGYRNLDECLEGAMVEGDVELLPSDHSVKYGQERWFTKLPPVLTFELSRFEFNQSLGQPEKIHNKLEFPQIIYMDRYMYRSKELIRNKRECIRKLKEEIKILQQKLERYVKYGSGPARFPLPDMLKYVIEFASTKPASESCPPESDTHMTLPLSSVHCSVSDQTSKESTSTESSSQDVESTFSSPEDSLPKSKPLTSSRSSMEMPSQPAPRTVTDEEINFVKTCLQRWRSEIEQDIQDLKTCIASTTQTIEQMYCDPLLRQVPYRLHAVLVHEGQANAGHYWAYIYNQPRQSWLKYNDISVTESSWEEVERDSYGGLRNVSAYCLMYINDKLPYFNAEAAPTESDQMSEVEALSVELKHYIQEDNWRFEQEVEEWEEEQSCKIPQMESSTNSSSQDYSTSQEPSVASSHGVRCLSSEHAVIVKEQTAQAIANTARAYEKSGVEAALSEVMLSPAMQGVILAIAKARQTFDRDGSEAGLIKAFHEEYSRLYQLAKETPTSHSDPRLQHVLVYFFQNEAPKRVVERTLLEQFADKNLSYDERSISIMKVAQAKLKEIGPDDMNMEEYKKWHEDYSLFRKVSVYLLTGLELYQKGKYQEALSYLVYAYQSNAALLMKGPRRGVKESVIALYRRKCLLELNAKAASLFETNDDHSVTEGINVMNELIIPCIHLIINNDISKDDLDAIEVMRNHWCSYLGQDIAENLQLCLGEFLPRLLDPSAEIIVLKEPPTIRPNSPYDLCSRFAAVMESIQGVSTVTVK
Protocol: USP28: The assay was performed in a final volume of 20 uL in assay buffer containing 20 mM Tris-HCl (pH 8.0, (1M Tris-HCl, pH 8.0 solution; Corning 46-031-CM)), 2 mM CaCl2 (1M Calcium Chloride solution; Sigma #21114) 2 mM BME (2-Mercaptoethanol; Sigma 63689-25ML -F), 0.01% Prionex (0.22 uM filtered, Sigma #G-0411), and 0.01% Triton X-100. Stock compound solutions were stored at […] as 10 mM in DMSO. Up to 1 month prior to the assay, 2 mM test compounds were pre-dispensed into assay plates (Black, low volume; Corning #3820) and […] Prestamped assay plates were allowed to come to room temperature on the day of the assay. For the screen, 100 nL of 2 mM was pre-dispensed for a final screening concentration of 10 uM (DMSO(fc)=0.5%). […] Plates were incubated stacked for 90 minutes at room temperature before fluorescence was read on the Envision (Excitation at 485 nm and Emission at 535 nm; Perkin Elmer) or on the PheraSTAR (Excitation at 485 nm and Emission at 535 nm; BMG Labtech).

[2] = target: T2, Ubiquitin carboxyl-terminal hydrolase 25 (Homo sapiens, UniProt Q9UHP3); experiment: Biochemical Assay
T2 sequence (Q9UHP3 whole entry): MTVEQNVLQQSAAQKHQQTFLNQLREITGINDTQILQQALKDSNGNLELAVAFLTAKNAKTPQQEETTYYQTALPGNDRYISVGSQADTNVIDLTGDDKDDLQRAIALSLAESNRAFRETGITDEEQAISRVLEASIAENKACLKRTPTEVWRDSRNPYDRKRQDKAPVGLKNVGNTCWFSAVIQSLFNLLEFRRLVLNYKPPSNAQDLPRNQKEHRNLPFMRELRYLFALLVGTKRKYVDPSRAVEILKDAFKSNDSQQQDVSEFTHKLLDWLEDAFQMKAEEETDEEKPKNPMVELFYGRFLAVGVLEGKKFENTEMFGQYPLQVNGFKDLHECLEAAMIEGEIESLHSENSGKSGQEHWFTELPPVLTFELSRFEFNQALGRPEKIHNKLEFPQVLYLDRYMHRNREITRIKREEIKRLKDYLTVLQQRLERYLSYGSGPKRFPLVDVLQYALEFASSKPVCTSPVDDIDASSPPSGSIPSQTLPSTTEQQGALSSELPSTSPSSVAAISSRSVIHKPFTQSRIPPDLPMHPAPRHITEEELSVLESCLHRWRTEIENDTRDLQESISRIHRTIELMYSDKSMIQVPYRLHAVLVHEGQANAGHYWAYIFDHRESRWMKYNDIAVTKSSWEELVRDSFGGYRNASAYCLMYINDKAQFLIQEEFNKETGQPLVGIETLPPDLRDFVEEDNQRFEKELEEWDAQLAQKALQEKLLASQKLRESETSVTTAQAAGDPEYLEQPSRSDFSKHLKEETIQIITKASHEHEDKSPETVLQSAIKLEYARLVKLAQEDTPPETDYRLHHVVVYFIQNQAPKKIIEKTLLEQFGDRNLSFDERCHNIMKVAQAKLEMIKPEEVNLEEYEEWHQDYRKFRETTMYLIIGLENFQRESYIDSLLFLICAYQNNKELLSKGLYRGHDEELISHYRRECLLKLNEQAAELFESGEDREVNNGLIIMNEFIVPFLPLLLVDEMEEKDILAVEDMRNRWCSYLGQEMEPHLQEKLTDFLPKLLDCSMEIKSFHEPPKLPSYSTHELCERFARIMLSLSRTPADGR
Protocol: USP25: The assay was performed in a final volume of 9 uL in assay buffer containing 20 mM Tris-HCl (pH 8.0, (1M Tris-HC1, pH 8.0 solution; Corning 46-031-CM)), 3 mM BME (2-Mercaptoethanol; Sigma 63689-25ML-F), 0.03% BGG (0.22 uM filtered, Sigma, G7516-25G), and 0.01% Triton X-100 (Sigma, T9284-10L). Nanoliter quantities of 10-point, 3-fold serial dilution in DMSO was pre-dispensed into 1536 assay plates (Corning, #3724BC) for a final test concentration of 25 uM to 1.3 nM, top to lowest dose, respectively. Enzyme USP25, construct USP25-His6, (Boston Biochem E-546). Concentration and incubation times were optimized for the maximal signal-to-background while maintaining initial velocity conditions at a fixed substrate concentration. The final concentration of the enzyme in the assay was 75 pM. Final substrate (Ub -Rh110; Ubiquitin-Rhodamine 110, R&D Systems #U-555) concentration was 25 nM with [Ub -Rh110] Km. 3 uL of 2x enzyme was added to assay plates (pre-stamped with compound) preincubated with USP25 for 30 minutes and then 3 uL of 2x Ub-Rh110 was added to assay plates. Plates were incubated for 45 minutes at room temperature before addition of 3 uL of stop solution (final concentration of 10 mM citric acid (Sigma, 251275-500G)). Fluorescence was read on the Envision (Excitation at 485 nm and Emission at 535 nm; Perkin Elmer) or on the PheraSTAR (Excitation at 485 nm and Emission at 535 nm; BMG Labtech).

SMILES | IC50 [1] | IC50 [2]
Nc1c(C(=O)NCCc2ccc([C@H]3CCNC3)cc2)sc2ncccc12 [US10913753, Compound I-180] | < 200 nM | in the range around 1100 nM
Nc1c(C(=O)NCCc2ccc(C3CCNC3)cc2)sc2ncccc12 (stereo unspecified) [US10913753, Compound I-181] | < 200 nM | in the range around 1100 nM
CN[C@H]1CN(c2nc(F)c(CCNC(=O)c3sc4nc(C)ccc4c3N)cc2F)CC1C (stereo partly specified) [US10913753, Compound I-214] | in the range around 1100 nM | in the range around 6000 nM
